Results published in patent EP3335720A1, “C-DI-GMP BINDING PEPTIDES” (Universität Basel, priority 2016, dated 2018).
pKd: −log10 of the molar value. Where two headings read alike, the source gives them in different places. Peptide text beside a SMILES is read from it. * marks the point of attachment. FITC = O=C1OC2(c3ccc(O)cc3Oc3cc(O)ccc32)c2ccc(NC(=S)*)cc21

Experiments:
[1] = tested on: P. aeruginosa PAO1 biofilms; type: cell-based
Procedure: The parameter "MBIC50", as used herein, is defined as the peptide concentration leading to 50% biofilm reduction in a standard biofilm assay. Preferably, the medium used for the assay is Mueller-Hinton broth (MHB), since most bacteria can be grown in this medium, and it allows a reliable comparison of MBIC values. MBIC50 values in accordance with the invention are obtained by growing P. aeruginosa at 37°C in presence of different concentrations of peptides, without agitation, for 24 h, followed by staining the adherent biofilm, dissolving the biofilm and measuring the OD600.
The standard biofilm assay (O'Toole G.A., Pratt L.A., Watnick P.I., Newman D.K., Weaver V.B., and Kolter R. 1999. Genetic approaches to study of biofilms. Methods Enzymol. 310: 91-109) was followed with minor modification, i.e. Mueller-Hinton II broth (MHB) (Becton Dickinson #212322) was used instead of lysogenic broth (LB) or minimal medium. MHB is preferred by The European Committee on Antimicrobial Susceptibility Testing (EUCAST) as the medium for MIC determination because most bacteria can be grown in this medium, which allows a more reliable MIC values comparisons. The MBIC50 was defined as the peptide concentration leading to 50% biofilm reduction (de la Fuente-Nunez C., Korolik V., Bains M., Nguyen U., Breidenstein E. B. M., Horsman S., Lewenza S., Burrows L., Hancock, R. E. W. (2012) Inhibition of bacterial biofilm formation and swarming motility by a small synthetic cationic peptide. 56: 2696-2704). MBIC50 values were obtained by growing P. aeruginosa (PAO1) biofilms in 96-well plates (Falcon #353072) in presence of peptides at 37°C without agitation in MHB. After 24 hours, bacterial growth was evaluated by measuring the OD600 in a microtiter plate reader (EL800, BioTek). Afterwards, the plates were rinsed three times with demineralized water to remove non-attached bacteria. The adherent biofilms were stained with 0.1% Crystal Violet and subsequently dissolved in 20% acetic acid. Dissolved biofilms were quantified by measuring the OD600 in a microtiter plate reader.

[2] = tested on: epithelial HeLa cells; assay: Cytotoxicity assays: resazurin reduction assay and LDH release assay; type: cell-based, human; details: 24 hours, Figures 11 and 12
Procedure: The cytotoxicity of the peptides was determined with a Resazurin cell viability assay (Sigma #R7017). In a 96-well plate (Corning #3904), monolayers of epithelial HeLa ATCC CCL-2 cells were grown in 100 µl growth medium (DMEM (Sigma #D5796) containing 10% FCS). Afterwards, the medium was removed and either replaced by DMEM/10% FCS containing 2-fold serial diluted peptides with a highest concentration of 256 mg/L. After 24 hours, the medium was removed and replaced by 100 µl fresh growth medium. 1% Triton X-100 (Sigma) was used as positive lysis control. 20 µl of resazurin solution (0.1 mg/ml) was added. After 2 hours, the fluorescence signal was recorded using a microplate reader (Synergy H4 BioTek) with an excitation wavelength of 560 nm and emission wavelength 590 nm.
Cells were prepared and treated with peptides as described for the resazurin reduction assay. 24 hours after peptide treatment, control wells were treated with 1% Triton X-100 (Sigma) as lysis control. LDH release was measured using the LDH Cytotoxicity Detection Kit (Clontech). Absorbance was measured at 490 nm using a microplate reader (Synergy H4 BioTek). The percentage of cell death was calculated as follows: (LDH peptide treated - LDH untreated)/(LDH total lysis - LDH untreated)* 100.

[3] = biological target: c-di-GMP; assay: Binding affinity of peptides to c-di-GMP by isothermal titration calorimetry (ITC); details: for Dissociation constant: pH 8.0
Procedure: Binding affinities of peptides to c-di-GMP were measured using isothermal titration calorimetry (ITC) on a VP-ITC MicroCalorimeter (MicroCal, Northampton, MA, USA). Peptides, c-di-GMP and buffer (50 mM Tris-HCl, pH 8.0, 100 mM NaCl) were degassed for 15 min prior to filling into sample cell and syringe. All experiments were carried out at a temperature of 15°C. The data were evaluated using ITC Data Analysis in ORIGIN provided by the manufacturer.

[4] = tested on: P. aeruginosa (PAO1); assay: P. aeruginosa growth in presence of peptides (growth curves); type: cell-based; details: 64 mg/L peptides, 37°C, MHB; Figure 10
Procedure: Growth curves were obtained by growing P. aeruginosa (PAO1) in 96-well plates (Falcon #353072) in presence of 64 mg/L peptides at 37°C with agitation in Mueller-Hinton II Broth (MHB) (BD #212322) using an Epoch 2 microplate reader (BioTek).

[5] = in vitro; type: in vitro ADME, P. aeruginosa PAO1
Procedure: (§1) P. aeruginosa PAO1 lysate, which was used to test peptide stability, was prepared by the following procedure. 500 ml of cells grown overnight at 37°C were harvested by centrifugation at 5000 rpm, 10 min at 4°C. Pellets were resuspended in 60 ml PBS (Gibco) and centrifuged at 5000 rpm, 10 min at 4°C. Pellets were resuspended again in 20 ml PBS and centrifuged at 5000 rpm, 10 min at 4°C. Cells were disrupted using high-pressure cell disrupter (Stansted Fluid Power). Cell lysate was separated from cell debris by centrifugation at 14,000 rpm for 20 min at 4°C. Lysate was diluted 10 fold to yield a protein content of about 1 mg/ml. The lysate was used for all experiments described below.
The stability of peptides was tested against P. aeruginosa PAO1 cell lysate. About 1 to 3 µg of peptides were incubated with 5 µl P. aeruginosa PAO1 cell lysate or PBS (untreated controls) at 37°C. After 2 hours, 6 µl of 2x SDS sample buffer was added to the samples and heated to 95°C for 5 min. Samples were analyzed on 10-20% Mini-PROTEAN tris-tricine gels (BIO-RAD #4563115) according to manufacturer's recommended protocol. Band intensities were quantified using the program ImageJ (Schneider, C. A., Rasband, W. S. and Eliceiri, K. W. 2012. NIH Image to ImageJ: 25 years of image analysis. Nature methods. 9: 671-675).

[6] = in vitro; type: in vitro ADME, P. aeruginosa PAO1; details: cells or culture medium
Procedure: as §1
The stability of peptides was tested against P. aeruginosa PAO1 cell lysate. […] Samples were analyzed on 10-20% Mini-PROTEAN tris-tricine gels (BIO-RAD #4563115) according to manufacturer's recommended protocol. Band intensities were quantified using the program ImageJ (Schneider, C. A., Rasband, W. S. and Eliceiri, K. W. 2012. NIH Image to ImageJ: 25 years of image analysis. Nature methods. 9: 671-675).
The protocol mentioned above was also used to compare stability of peptides in the presence of c-di-GMP. […] 14 µl samples were removed at 2, 4, 6 and 8 hours after incubation at 37°C and analyzed on tris-tricine gels as described above.

[7] = Table 3, peptides with amino acid substitution, 15°C

Compound | MBIC50 ([1]; peptide concentration leading to 50% biofilm reduction, MHB, 37°C, 24 hours, without agitation) | concentration up to which no toxic effect was shown [2] [µg/mL] | Dissociation constant [3, 7] | binding affinity to c-di-GMP, in words ([3]; compared to the core sequence / peptide of SEQ ID NO: 12) | effect on bacterial growth [4] | Remaining peptide after 2 hours [5] [%] | remaining at 2 h [6] [%] | MBIC50 ([1]; PAO1, 24 h) [mg/L] | pKd ([3]; Table 3, peptides with amino acid substitution, 15°C, pH 8.0, read-out: Dissociation constant) | MBIC50 compared to the MBIC50 of the peptide of SEQ ID NO: 28 ([1]; lower)
C[C@H](NC(=O)[C@H](CO)NC(=O)[C@H](CC(N)=O)NC(=O)[C@H](Cc1ccccc1)NC(=O)[C@H](CCCNC(=N)N)NC(=O)[C@H](CCCNC(=N)N)NC(=O)[C@H](CCCNC(=N)N)NC(=O)CNC(=O)[C@H](CC(=O)O)NC(=O)[C@H](CCCNC(=N)N)NC(=O)[C@H](CCCNC(=N)N)NC(=O)[C@H](CCCNC(=N)N)NC(=O)[C@H](CCC(N)=O)NC(=O)[C@H](CCCNC(=N)N)NC(=O)[C@H](CCCNC(=N)N)NC(=O)[C@H](CCCCN)NC(=O)[C@H](CCCCN)NC(=O)[C@H](CCCNC(=N)N)NC(=O)CNC(=O)[C@H](Cc1ccc(O)cc1)NC(=S)Nc1ccc2c(c1)C(=O)OC21c2ccc(O)cc2Oc2cc(O)ccc21)C(=O)N[C@@H](CC(=O)O)C(=O)N[C@@H](Cc1ccc(O)cc1)C(=O)N[C@@H](CCCCN)C(=O)NCC(=O)N1CCC[C@H]1C(=O)N[C@@H](CCCNC(=N)N)C(=O)N[C@@H](CCCNC(=N)N)C(=O)N[C@@H](CCCNC(=N)N)C(=O)N[C@@H](CCCCN)C(=O)N[C@@H](C)C(=O)N[C@@H](CC(=O)O)C(N)=O [SEQ ID NO: 51] ({FITC}-YGRKKRRQRRRDGRRRFNSADYKGPRRRKAD-NH2) | below 0.25 mg/L | ≤ 64 |  |  |  |  |  |  |  | 
Ac-DRRRFNSADYKGPRRAKAD-NH2 [SEQ ID NO: 28, AC-DRRRFNSADYKGPRRAKAD-NH2] |  |  | no binding detected | significantly reduced binding affinities | do not show an effect on bacterial growth |  |  |  |  | 
Ac-DRRRFNSADYKGPRRAKAD-NH2 [compound 28] |  |  | no binding |  |  | 11 | 23 | 1 to 2 |  | 
Ac-DRRRFNSADYKGPRRRKAD-NH2 [SEQ ID NO: 12, AC-DRRRFNSADYKGPRRRKAD-NH2] |  | ≤ 64 |  |  | do not show an effect on bacterial growth | 11 | 32 |  | 6.77 | about 4 fold
